Broadly, the IC50 is the concentration needed to halve the response being measured.

Molecules are shown by their SMILES. Like-named read-outs stand apart in the source and are kept apart here. Where only a bound is given, the exact number is not on record here.

One assay addresses Mnk1 (Homo sapiens (Human), UniProt Q9BUB5). Briefly: Mnk1 kinase inhibition, ADP-Glo ADP monitoring assay. It is filed as biochemical. To be noted: read-out: Mnk1 inhibition IC50 (+,++,+++). In general terms: ADP-Glo first removes unused ATP, then detects ADP through luciferase.
In another assay the target is Mnk2 (Homo sapiens (Human), UniProt Q9HBH9). As to the kind of experiment: Mnk2 kinase inhibition, ADP-Glo ADP monitoring assay. In kind it is biochemical.
Chain of Mnk2 (Q9HBH9 whole entry): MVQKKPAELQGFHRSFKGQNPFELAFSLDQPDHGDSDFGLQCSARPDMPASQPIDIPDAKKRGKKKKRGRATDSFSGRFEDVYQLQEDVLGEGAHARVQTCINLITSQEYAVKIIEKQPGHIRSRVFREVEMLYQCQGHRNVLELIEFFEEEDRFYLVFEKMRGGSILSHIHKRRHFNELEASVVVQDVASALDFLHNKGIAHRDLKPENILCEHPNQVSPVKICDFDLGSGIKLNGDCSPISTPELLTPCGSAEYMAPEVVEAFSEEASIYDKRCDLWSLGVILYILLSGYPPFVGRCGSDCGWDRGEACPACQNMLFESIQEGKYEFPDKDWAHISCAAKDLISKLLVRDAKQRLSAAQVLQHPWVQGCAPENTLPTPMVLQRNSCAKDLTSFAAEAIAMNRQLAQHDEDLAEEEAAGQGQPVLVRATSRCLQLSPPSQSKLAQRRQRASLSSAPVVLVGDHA
[1] abbreviates: ADP-Glo kinase assay, read-out: Mnk2 inhibition IC50 (+,++,+++).

Chain of Mnk1 (Q9BUB5 whole entry): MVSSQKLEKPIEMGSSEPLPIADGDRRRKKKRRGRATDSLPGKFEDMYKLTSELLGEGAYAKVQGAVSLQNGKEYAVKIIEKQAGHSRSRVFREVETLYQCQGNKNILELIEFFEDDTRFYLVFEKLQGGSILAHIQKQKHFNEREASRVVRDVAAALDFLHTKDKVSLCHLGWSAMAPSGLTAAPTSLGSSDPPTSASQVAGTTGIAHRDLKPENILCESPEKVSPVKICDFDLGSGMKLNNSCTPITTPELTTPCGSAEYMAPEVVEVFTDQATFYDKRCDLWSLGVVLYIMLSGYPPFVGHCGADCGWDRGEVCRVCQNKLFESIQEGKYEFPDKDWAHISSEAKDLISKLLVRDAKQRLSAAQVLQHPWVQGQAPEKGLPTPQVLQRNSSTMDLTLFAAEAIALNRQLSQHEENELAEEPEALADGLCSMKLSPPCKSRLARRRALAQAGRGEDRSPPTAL
Procedure for Mnk1: (§1) The synthesized compounds then were tested for inhibition of the kinase activity (IC50) of Mnk1 and/or Mnk2 using the ADP monitoring assay for kinases described in Zegzouti, H.; Zdanovskaia, M.; Hsiao, K.; Goueli, S. A., ADP-Glo: A Bioluminescent and homogeneous ADP monitoring assay for kinases.
Procedure for Mnk2: as §1

As to `NC1CC(Oc2ncc(Cl)c(-n3cnc(-c4ccc(Cl)c(C(F)(F)F)c4)c3)n2)C1` (centres unmarked) [NUCC-0201247, 3-((5-chloro-4-(4-(4-chloro-3-(trifluoromethyl)phenyl)-1H-imidazol-1-yl)pyrimidin-2-yl)oxy)cyclobutanamine], the half-inhibitory concentration (IC50) on Mnk1 and at Mnk2 was 1000 to 10000 nM throughout.

On to `N#Cc1cnc(OC2CC(N)C2)nc1-n1cnc(-c2ccc(Cl)c(Cl)c2)c1` (centres unmarked) [NUCC-0201248], for which the half-maximal inhibitory concentration (IC50) was 1000 to 10000 nM at Mnk1 and less than 1000 nM on Mnk2 (setting [1]).

`CC(C)(COc1ncc(Cl)c(-n2cnc3ccccc32)n1)c1ccncc1` [NUCC-0201593, 1-(5-chloro-2-(2-methyl-2-(pyridin-4-yl)propoxy)pyrimidin-4-yl)-1H-benzo[d]imidazole]: the IC50 at Mnk1 is 1000 to 10000 nM; at Mnk2 (setting [1]) it was less than 1000 nM.

For the compound `Fc1ccc2c(ncn2-c2nc(OCCc3ccccn3)ncc2Cl)c1F` [NUCC-0201662], the half-inhibitory concentration (IC50) on Mnk1 and at Mnk2 (setting [1]) was less than 1000 nM in each case.

For the compound `NC1CC(Oc2ncc(C(F)(F)F)c(-n3cnc4ccccc43)n2)C1` (centres unmarked) [NUCC-0201663], the half-inhibitory concentration (IC50) at Mnk1 is less than 1000 nM; against Mnk2, 1000 to 10000 nM.

Regarding `NC1CC(Oc2ncc(Cl)c(-n3cnc(C(F)(F)F)c3)n2)C1` (centres unmarked) [NUCC-0201664], the IC50 is less than 1000 nM on Mnk1 and 1000 to 10000 nM against Mnk2.

Consider `Clc1cnc(CCc2ccccn2)nc1-n1cnc2ccccc21` [NUCC-0201706, 1-(5-chloro-2-(2-(pyridin-2-yl)ethyl)pyrimidin-4-yl)-1H-benzo[d]imidazole], for which the IC50 on Mnk1 and against Mnk2 was 1000 to 10000 nM each time.

Consider `Fc1cnc(NC23CC(C2)C3)nc1-n1cnc2ccccc21` [NUCC-0201887], for which the IC50 at Mnk1 and on Mnk2 (setting [1]) was less than 1000 nM in each case.

Consider `FC(F)(F)c1cnc(NC23CC(C2)C3)nc1-n1cnc2ccccc21` [NUCC-0201888], for which the IC50 on Mnk1 and at Mnk2 (setting [1]) was less than 1000 nM in each case.

For `CCOC(=O)c1cnc(NC2CNC(=O)C2)nc1-n1cnc2ccccc21` (centres unmarked) [NUCC-0201889], the IC50 on Mnk1 and on Mnk2 was 1000 to 10000 nM in each case.

As for `O=C1CC(Nc2ncc(C(F)(F)F)c(-n3cnc4ccccc43)n2)CN1` (centres unmarked) [NUCC-0201890], the IC50 at Mnk1 and on Mnk2 (setting [1]) was less than 1000 nM throughout.

Consider `O=C(O)C1CC(Oc2ncc(Cl)c(-n3cnc4ccccc43)n2)C1` (centres unmarked) [NUCC-0201891], for which the IC50 is 1000 to 10000 nM at Mnk1 and less than 1000 nM at Mnk2 (setting [1]).

On to `Nc1ccc(CCOc2ncc(Cl)c(-n3cnc4ccccc43)n2)cc1` [NUCC-0201892], for which the half-inhibitory concentration (IC50) on Mnk1 and at Mnk2 (setting [1]) was less than 1000 nM in each case.

For the compound `NC1CC(Oc2ncc(Br)c(-n3cnc4ccccc43)n2)C1` (centres unmarked) [NUCC-0201893], the 50% inhibitory concentration (IC50) on Mnk1 and on Mnk2 (setting [1]) was less than 1000 nM in each case.

For `NC1CC(Oc2nc(-n3cnc4ccccc43)c3ccccc3n2)C1` (centres unmarked) [NUCC-0201894], the half-maximal inhibitory concentration (IC50) at Mnk1 and at Mnk2 (setting [1]) was less than 1000 nM throughout.

In the case of `Brc1cnc(OC2CCNC2)nc1-n1cnc2ccccc21` (centres unmarked) [NUCC-0201895], the IC50 on Mnk1 and at Mnk2 (setting [1]) was less than 1000 nM throughout.

For `c1ccc2c(c1)ncn2-c1ccnc(OC2CCNC2)n1` (centres unmarked) [NUCC-0201896], the IC50 on Mnk1 and at Mnk2 (setting [1]) was less than 1000 nM in each case.

With `FC(F)(F)c1cnc(OC2CCNC2)nc1-n1cnc2ccccc21` (centres unmarked) [NUCC-0201897], the IC50 on Mnk1 and on Mnk2 (setting [1]) was less than 1000 nM each time.

Regarding `NC(=O)c1cccc(-c2cnc(OC3CC(N)C3)nc2-n2cnc3ccccc32)c1` (centres unmarked) [NUCC-0201899], the IC50 at Mnk1 is 1000 to 10000 nM; at Mnk2 (setting [1]), less than 1000 nM.

On to `NC1CC(Oc2ncc(C3CC3)c(-n3cnc4ccccc43)n2)C1` (centres unmarked) [NUCC-0201900], for which the half-inhibitory concentration (IC50) at Mnk1 and on Mnk2 (setting [1]) was less than 1000 nM each time.

In the case of `NC(=O)c1cccc(-c2cnc(OC3CCNC3)nc2-n2cnc3ccccc32)c1` (centres unmarked) [NUCC-0201901], the concentration for half-maximal inhibition (IC50) at Mnk1 is 1000 to 10000 nM; on Mnk2 (setting [1]), less than 1000 nM.

As to `c1ccc2c(c1)ncn2-c1nc(OC2CCNC2)ncc1-c1ccsc1` (centres unmarked) [NUCC-0201902], the IC50 at Mnk1 and at Mnk2 (setting [1]) was less than 1000 nM in each case.

These data come from patent US10851082B2, “Substituted aromatic n-heterocyclic compounds as inhibitors of mitogen-activated protein kinase interacting kinase 1 (MNK1) and 2 (MNK2)” (Northwestern University, priority 2015, dated 2020).
